Laboratory results as given in ChEMBL document CHEMBL4699409, “Synthesis, evaluation and molecular modelling of piceatannol analogues as arginase inhibitors” (RSC Med Chem, 2020).

Tests used:
Arginase-1 [1] = target: T1, Arginase-1 (Homo sapiens, UniProt P05089); test: Inhibition of recombinant human ARG1 expressed in CHO-K1 cells assessed as reduction in urea level incubated for 24 hrs by colorimetric assay; assay type: cell-based
T1 sequence (P05089 whole entry): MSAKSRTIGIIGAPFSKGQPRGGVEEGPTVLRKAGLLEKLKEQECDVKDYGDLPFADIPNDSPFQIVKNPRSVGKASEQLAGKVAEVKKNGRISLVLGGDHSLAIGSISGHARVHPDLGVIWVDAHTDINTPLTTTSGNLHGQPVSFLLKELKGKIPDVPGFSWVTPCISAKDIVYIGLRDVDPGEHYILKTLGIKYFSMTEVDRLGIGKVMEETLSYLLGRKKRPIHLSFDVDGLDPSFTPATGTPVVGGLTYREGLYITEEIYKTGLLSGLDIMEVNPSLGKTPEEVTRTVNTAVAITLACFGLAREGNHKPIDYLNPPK

Arginase-1 [2] = target: T2, Arginase-1 (Bos taurus, UniProt Q2KJ64); test: Inhibition of recombinant bovine liver ARGI using L-arginine as substrate incubated for 60 mins by spectroscopic analysis
T2 sequence (Q2KJ64 whole entry): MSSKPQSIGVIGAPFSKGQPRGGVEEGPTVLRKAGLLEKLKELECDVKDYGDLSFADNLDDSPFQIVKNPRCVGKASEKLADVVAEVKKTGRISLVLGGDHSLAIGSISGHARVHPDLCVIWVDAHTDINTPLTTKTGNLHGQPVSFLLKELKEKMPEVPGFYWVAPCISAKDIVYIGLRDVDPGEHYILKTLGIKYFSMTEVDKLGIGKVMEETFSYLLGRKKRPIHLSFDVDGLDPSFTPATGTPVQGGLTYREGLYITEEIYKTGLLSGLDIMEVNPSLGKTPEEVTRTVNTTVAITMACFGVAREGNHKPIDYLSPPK

Arginase-1 [3] = target: T2, Arginase-1; test: Mixed type inhibition of recombinant bovine liver ARGI using L-arginine as substrate incubated for 60 mins by Dixon plot analysis
Arginase-1 [4] = target: T2, Arginase-1; test: Mixed type inhibition of recombinant bovine liver ARGI using L-arginine as substrate incubated for 60 mins by Cornish-Bowden plot analysis
Arginase-1 [5] = target: T1, Arginase-1; test: Inhibition of recombinant human liver ARGI using L-arginine as substrate incubated for 60 mins by spectroscopic analysis
Arginase-1 [6] = target: T2, Arginase-1; test: Mixed type inhibition of recombinant bovine liver ARGI using L-arginine as substrate incubated for 60 mins by Lineweaver-Burk plot analysis

Structure (SMILES)	IC50 (Arginase-1 [2]) [µM]	other results
N[C@@H](CCCCB(O)O)C(=O)O	–	IC50 (Arginase-1 [1]): 16.8 µM
NCc1ccc(O)c(O)c1	164	–
Oc1ccc(O)c(O)c1	360	–
OCc1ccc(O)c(O)c1	106	–
Oc1ccc(CNCc2ccc3c(c2)OCO3)cc1O	226	–
Oc1cccc(NCc2ccc(O)c(O)c2)c1	83	–
Oc1ccc(NCc2ccc(O)c(O)c2)cc1	238	–
O=C(O)c1cc(O)cc(NCc2ccc(O)c(O)c2)c1	108	–
Oc1ccc(CNCc2cc(Cl)cc(Cl)c2)cc1O	277	–
COc1cccc(CNCc2ccc(O)c(O)c2)c1	300	–
Nc1ccc(O)c(O)c1	478	–
Oc1ccc(CNc2ccc(O)c(O)c2)cc1O	76	Ki (Arginase-1 [3]): 82 µM; IC50 (Arginase-1 [1]): 794 µM; Ki (Arginase-1 [4]): 82 µM; IC50 (Arginase-1 [5]): 89 µM; Ki (Arginase-1 [6]): 82 µM
O=C(O)c1cc(NCc2ccc(O)c(O)c2)ccc1O	187	–
COc1ccc(NCc2ccc(O)c(O)c2)cc1	154	–
Oc1ccc(CNCCN2CCOCC2)cc1O	467	–
COc1cccc(NCc2ccc(O)c(O)c2)c1	185	–

Structure (SMILES)	IC50 (Arginase-1 [2]) [µM]	other results
Oc1ccc(CNCc2cccc(Cl)c2)cc1O	329	–
COc1ccc(CNCc2ccc(O)c(O)c2)cc1	389	–
Oc1cccc(Br)c1O	274	–
CCOC(=O)C(NCc1ccc(O)c(O)c1)C(=O)OCC	362	–
Oc1ccc(CNc2ccccc2)cc1O	164	–
NCCCNCc1ccc(O)c(O)c1	343	–
Oc1ccc(CNCc2ccccc2)cc1O	145	–
Oc1ccc(CNCCc2c[nH]cn2)cc1O	318	–
Oc1cc(O)cc(NCc2ccc(O)c(O)c2)c1	141	–
Oc1ccc(CNCCc2ccccc2)cc1O	367	–
O=C(O)/C=C/c1ccc(O)c(O)c1 [CAFFEIC ACID]	131	–
Oc1ccccc1O [CATECHOL]	123	–
NCCc1ccc(O)c(O)c1 [DOPAMINE]	128	–
COC(=O)c1ccc(O)c(O)c1 [METHYL PROTOCATECHUATE]	285	–
N=C(NO)NCC[C@H](N)C(=O)O [NOR-NOHA]	2.7	–
Oc1cc(O)cc(/C=C/c2ccc(O)c(O)c2)c1 [PICEATANNOL]	47	Ki (Arginase-1 [3]): 136 µM; IC50 (Arginase-1 [1]): 1180 µM; Ki (Arginase-1 [4]): 136 µM; IC50 (Arginase-1 [5]): 69 µM; Ki (Arginase-1 [6]): 136 µM
